Values joined by “and” are separate entries in the source; they are usually repeats but may differ in a detail not shown here. Equal entries are not always repeated.

Our source for the IC50 values is BindingDB's records for patent US10821115 (Amgen, 2020).

The assay deals with T1, Induced myeloid leukemia cell differentiation protein Mcl-1 [171-327] (Homo sapiens, UniProt Q07820).
T1 construct: 171-327
T1 sequence (Q07820 171-327): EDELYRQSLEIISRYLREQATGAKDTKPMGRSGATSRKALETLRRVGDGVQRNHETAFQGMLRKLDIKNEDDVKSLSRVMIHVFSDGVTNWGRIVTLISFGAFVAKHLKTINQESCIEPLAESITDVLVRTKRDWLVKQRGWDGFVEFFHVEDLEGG
Put plainly: Time-Resolved Fluorescence Resonance Energy Transfer (TR-FRET) Assay.
Method: The inhibition of the Mcl-1/Bim interaction was measured using a time-resolved fluorescence resonance energy transfer (TR-FRET) assay. […] A biotinylated peptide derived from human Bim (residues 51-76) was purchased from CPC Scientific (San Jose, Calif.). The TR-FRET assay was conducted in a 384-well white OptiPlate (PerkinElmer, Waltham, Mass.) in a total volume of 40 uL. […] The reaction plates were further incubated overnight and then were read on an Envision multimode reader (PerkinElmer). […] The IC50 values of test compounds were determined from duplicate data by analyzing competition curves using a four-parameter sigmoidal model in GraphPad Prism.
`C[C@@H]1[C@@H](C)C/C=C/[C@@](O)(c2ccc(F)nc2)[C@@H]2CC[C@H]2CN2C[C@@]3(CCCc4cc(Cl)ccc43)COc3ccc(cc32)C(=O)NS1(=O)=O` (single isomer, unassigned) [US10821115, Example 100420] registered an IC50 of 0.112 nM.
For `CO[C@@]1(CN2CCN(CCS(C)(=O)=O)CC2)/C=C/C[C@H](C)[C@@H](C)S(=O)(=O)NC(=O)c2ccc3c(c2)N(C[C@@H]2CC[C@H]21)C[C@@]1(CCCc2cc(Cl)ccc21)CO3` [US10821115, Example 81], the IC50 was 0.14 nM.
For `CO[C@]1(CN2CCN(CC(F)(F)F)CC2)/C=C/C[C@H](C)[C@@H](C)S(=O)(=O)NC(=O)c2ccc3c(c2)N(C[C@@H]2CC[C@H]21)C[C@@]1(CCCc2cc(Cl)ccc21)CO3` [US10821115, Example 93], the midpoint of inhibition, the IC50, lay at 0.53 nM.
In the case of `CCO[C@]1(CN2CCN(C(COC)COC)CC2)/C=C/C[C@H](C)[C@@H](C)S(=O)(=O)NC(=O)c2ccc3c(c2)N(C[C@@H]2CC[C@H]21)C[C@@]1(CCCc2cc(Cl)ccc21)CO3` [US10821115, Example 116], the concentration for half-maximal inhibition (IC50) turned out to be 0.244 nM.
Compound `CO[C@@]1(CN2CCN(C3CCOCC3)CC2)/C=C/C[C@H](C)[C@@H](C)S(=O)(=O)NC(=O)c2ccc3c(c2)N(C[C@@H]2CC[C@H]21)C[C@@]1(CCCc2cc(Cl)ccc21)CO3` [US10821115, Example 262] yielded an IC50 of 0.093 nM.
Regarding `CO[C@@]1(CN2CCC(N3CCOCC3)CC2)/C=C/C[C@H](C)[C@@H](C)S(=O)(=O)NC(=O)c2ccc3c(c2)N(C[C@@H]2CC[C@H]21)C[C@@]1(CCCc2cc(Cl)ccc21)CO3` [US10821115, Example 263], the half-inhibitory concentration (IC50) came to 0.147 nM.
Compound `CO[C@@]1(CN2CCN([C@H]3CCOC(=O)C3)CC2)/C=C/C[C@H](C)[C@@H](C)S(=O)(=O)NC(=O)c2ccc3c(c2)N(C[C@@H]2CC[C@H]21)C[C@@]1(CCCc2cc(Cl)ccc21)CO3` [US10821115, Example 271] came in with an IC50 of 0.031 nM.
On to `CO[C@@]1(CN2CCN([C@H](CCO)CC(=O)O)CC2)/C=C/C[C@H](C)[C@@H](C)S(=O)(=O)NC(=O)c2ccc3c(c2)N(C[C@@H]2CC[C@H]21)C[C@@]1(CCCc2cc(Cl)ccc21)CO3` [US10821115, Example 278], for which the IC50 was 0.039 nM.
As for `COCC(COC)N1CCN(C[C@]2(OC)/C=C/C[C@H](C)[C@@H](C)S(=O)(=O)NC(=O)c3ccc4c(c3)N(C[C@@H]3CC[C@H]32)C[C@@]2(CCCc3cc(Cl)ccc32)CO4)CC1` [US10821115, Example 287], the concentration for half-maximal inhibition (IC50) turned out to be 0.137 nM.
Regarding `COCCN(CCOC)C1CCN(C[C@]2(OC)/C=C/C[C@H](C)[C@@H](C)S(=O)(=O)NC(=O)c3ccc4c(c3)N(C[C@@H]3CC[C@H]32)C[C@@]2(CCCc3cc(Cl)ccc32)CO4)CC1` [US10821115, Example 308], inhibition was half-maximal at 0.111 nM (IC50).
Consider `CO[C@@]1(CN2CCN(CC(CO)CO)CC2)/C=C/C[C@H](C)[C@@H](C)S(=O)(=O)NC(=O)c2ccc3c(c2)N(C[C@@H]2CC[C@H]21)C[C@@]1(CCCc2cc(Cl)ccc21)CO3` [US10821115, Example 310], for which the IC50 worked out at 0.117 nM.
As to `CCO[C@@]1(CN2CCN(C3(C)COC3)CC2)/C=C/C[C@H](C)[C@@H](C)S(=O)(=O)NC(=O)c2ccc3c(c2)N(C[C@@H]2CC[C@H]21)C[C@@]1(CCCc2cc(Cl)ccc21)CO3` [US10821115, Example 311], the IC50 turned out to be 0.324 nM.
For `CCO[C@@]1(CN2CCC(N(CCOC)CCOC)CC2)/C=C/C[C@H](C)[C@@H](C)S(=O)(=O)NC(=O)c2ccc3c(c2)N(C[C@@H]2CC[C@H]21)C[C@@]1(CCCc2cc(Cl)ccc21)CO3` [US10821115, Example 312], the IC50 was determined as 0.576 nM.
Under `CO[C@]1(CN2CCN(C3(C)COC3)CC2)/C=C/C[C@H](C)[C@@H](C)S(=O)(=O)NC(=O)c2ccc3c(c2)N(C[C@@H]2CC[C@H]21)C[C@@]1(CCCc2cc(Cl)ccc21)CO3` [US10821115, Example 319] stands 0.081 nM.
`CO[C@@]1(CC(=O)N(C)C)/C=C/C[C@H](C)[C@@H](C)S(=O)(=O)NC(=O)c2ccc3c(c2)N(C[C@@H]2CC[C@H]21)C[C@@]1(CCCc2cc(Cl)ccc21)CO3` [US10821115, Example 100135] came in with an IC50 of 0.173 nM.
`CO[C@]1(c2cccnc2F)/C=C/C[C@H](C)[C@@H](C)S(=O)(=O)NC(=O)c2ccc3c(c2)N(C[C@@H]2CC[C@H]21)C[C@@]1(CCCc2cc(Cl)ccc21)CO3` [US10821115, Example 100324]: the IC50 was 0.244 nM and 0.182 nM.
`CO[C@]1(c2cccc(F)n2)/C=C/C[C@H](C)[C@@H](C)S(=O)(=O)NC(=O)c2ccc3c(c2)N(C[C@@H]2CC[C@H]21)C[C@@]1(CCCc2cc(Cl)ccc21)CO3` [US10821115, Example 100339] registered an IC50 of 0.779 nM.
As for `CCN(CC)C(=O)C[C@]1(OC)/C=C/C[C@H](C)[C@@H](C)S(=O)(=O)NC(=O)c2ccc3c(c2)N(C[C@@H]2CC[C@H]21)C[C@@]1(CCCc2cc(Cl)ccc21)CO3` [US10821115, Example 100347], the IC50 turned out to be 0.689 nM.
Under `CO[C@@]1(c2cccnn2)/C=C/C[C@H](C)[C@@H](C)S(=O)(=O)N(C)C(=O)c2ccc3c(c2)N(C[C@@H]2CC[C@H]21)C[C@@]1(CCCc2cc(Cl)ccc21)CO3` [US10821115, Example 100350] stands 0.489 nM; under `CO[C@@]1(CC(=O)N(C)C2CC2)/C=C/C[C@H](C)[C@@H](C)S(=O)(=O)NC(=O)c2ccc3c(c2)N(C[C@@H]2CC[C@H]21)C[C@@]1(CCCc2cc(Cl)ccc21)CO3` [US10821115, Example 100374], 0.289 nM; under `C[C@@H]1[C@@H](C)C/C=C/[C@](O)(C#CCCc2ccccn2)[C@@H]2CC[C@H]2CN2C[C@@]3(CCCc4cc(Cl)ccc43)COc3ccc(cc32)C(=O)NS1(=O)=O` [US10821115, Example 100455], 0.087 nM.
Compound `CO[C@@]1(CC(=O)NCCO)/C=C/C[C@H](C)[C@@H](C)S(=O)(=O)NC(=O)c2ccc3c(c2)N(C[C@@H]2CC[C@H]21)C[C@@]1(CCCc2cc(Cl)ccc21)CO3` [US10821115, Example 100465] showed an IC50 of 0.121 nM.
The compound `COC(=O)C(C)(C)NC(=O)C[C@]1(OC)/C=C/C[C@H](C)[C@@H](C)S(=O)(=O)NC(=O)c2ccc3c(c2)N(C[C@@H]2CC[C@H]21)C[C@@]1(CCCc2cc(Cl)ccc21)CO3` [US10821115, Example 100544] showed an IC50 of 0.171 nM.
Under `CO[C@@]1(CC(=O)NC(C)(C)C(=O)O)/C=C/C[C@H](C)[C@@H](C)S(=O)(=O)NC(=O)c2ccc3c(c2)N(C[C@@H]2CC[C@H]21)C[C@@]1(CCCc2cc(Cl)ccc21)CO3` [US10821115, Example 100546] stands 0.084 nM; under `COC(=O)CNC(=O)C[C@]1(OC)/C=C/C[C@H](C)[C@@H](C)S(=O)(=O)NC(=O)c2ccc3c(c2)N(C[C@@H]2CC[C@H]21)C[C@@]1(CCCc2cc(Cl)ccc21)CO3` [US10821115, Example 100550], 0.059 nM; under `CO[C@@]1(CC(=O)NCc2ncco2)/C=C/C[C@H](C)[C@@H](C)S(=O)(=O)NC(=O)c2ccc3c(c2)N(C[C@@H]2CC[C@H]21)C[C@@]1(CCCc2cc(Cl)ccc21)CO3` [US10821115, Example 100577], 0.045 nM.
Take `COC(=O)[C@H](NC(=O)C[C@]1(OC)/C=C/C[C@H](C)[C@@H](C)S(=O)(=O)NC(=O)c2ccc3c(c2)N(C[C@@H]2CC[C@H]21)C[C@@]1(CCCc2cc(Cl)ccc21)CO3)[C@@H](C)O` [US10821115, Example 100581]: the IC50 stood at 0.363 nM.
`CO[C@@]1(CC(N)=O)/C=C/C[C@H](C)[C@@H](C)S(=O)(=O)NC(=O)c2ccc3c(c2)N(C[C@@H]2CC[C@H]21)C[C@@]1(CCCc2cc(Cl)ccc21)CO3` [US10821115, Example 100589] gave an IC50 of 1.83 nM.

As usually defined, the IC50 is the concentration at which inhibition is half-maximal. Low readings indicate inhibition by little substance, high ones a need for much substance.
